Test results reported in ChEMBL document CHEMBL1133477, “Discovery of novel p-arylthio cinnamides as antagonists of leukocyte function-associated antigen-1/intracellular adhesion molecule-1 interaction. 1. Identification of an additional binding pocket based on an anilino diaryl sulfide lead” (J Med Chem, 2000).

Experiments:
[1] = target: T1, Intercellular adhesion molecule (ICAM-1), Integrin alpha-L/beta-2 (Homo sapiens, UniProt P05107+P20701); assay: Ability to block the interaction between integrin LFA-1 and its adhesion partner ICAM-1 in a time-resolved fluorescent LFA-1/ICAM-1 biochemical interaction assay; format: protein-complex assay
T1 sequence (P20701 whole entry): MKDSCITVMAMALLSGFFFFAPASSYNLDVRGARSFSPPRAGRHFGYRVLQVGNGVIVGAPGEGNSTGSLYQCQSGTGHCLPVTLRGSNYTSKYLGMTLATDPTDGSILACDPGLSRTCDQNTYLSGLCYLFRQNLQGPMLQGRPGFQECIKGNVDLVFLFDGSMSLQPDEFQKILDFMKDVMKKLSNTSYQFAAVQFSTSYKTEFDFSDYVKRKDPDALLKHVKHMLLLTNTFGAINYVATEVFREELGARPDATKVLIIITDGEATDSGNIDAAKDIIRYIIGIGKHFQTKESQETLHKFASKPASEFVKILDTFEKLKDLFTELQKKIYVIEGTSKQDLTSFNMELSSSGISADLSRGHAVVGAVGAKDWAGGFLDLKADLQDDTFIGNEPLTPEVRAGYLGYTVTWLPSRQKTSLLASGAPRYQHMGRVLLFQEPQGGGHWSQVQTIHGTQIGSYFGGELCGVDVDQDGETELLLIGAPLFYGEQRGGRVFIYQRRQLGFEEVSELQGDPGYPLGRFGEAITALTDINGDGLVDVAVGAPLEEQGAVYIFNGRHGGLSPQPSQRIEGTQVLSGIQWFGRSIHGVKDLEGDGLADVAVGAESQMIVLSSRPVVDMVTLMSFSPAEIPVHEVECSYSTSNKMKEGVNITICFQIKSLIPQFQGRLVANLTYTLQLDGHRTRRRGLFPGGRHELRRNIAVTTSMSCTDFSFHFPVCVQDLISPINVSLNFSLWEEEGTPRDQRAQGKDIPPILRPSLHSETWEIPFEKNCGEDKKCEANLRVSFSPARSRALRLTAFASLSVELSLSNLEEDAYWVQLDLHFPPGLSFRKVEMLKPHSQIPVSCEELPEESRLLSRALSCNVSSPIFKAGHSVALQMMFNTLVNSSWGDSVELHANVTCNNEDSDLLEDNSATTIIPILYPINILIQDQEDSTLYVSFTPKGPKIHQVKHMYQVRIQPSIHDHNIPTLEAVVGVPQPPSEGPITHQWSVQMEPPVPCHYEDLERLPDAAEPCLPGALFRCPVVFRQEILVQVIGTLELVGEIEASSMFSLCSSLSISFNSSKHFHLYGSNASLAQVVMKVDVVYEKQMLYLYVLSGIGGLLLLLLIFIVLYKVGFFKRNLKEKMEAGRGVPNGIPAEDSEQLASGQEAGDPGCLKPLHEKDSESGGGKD
T1 sequence (P05362 whole entry, further chain): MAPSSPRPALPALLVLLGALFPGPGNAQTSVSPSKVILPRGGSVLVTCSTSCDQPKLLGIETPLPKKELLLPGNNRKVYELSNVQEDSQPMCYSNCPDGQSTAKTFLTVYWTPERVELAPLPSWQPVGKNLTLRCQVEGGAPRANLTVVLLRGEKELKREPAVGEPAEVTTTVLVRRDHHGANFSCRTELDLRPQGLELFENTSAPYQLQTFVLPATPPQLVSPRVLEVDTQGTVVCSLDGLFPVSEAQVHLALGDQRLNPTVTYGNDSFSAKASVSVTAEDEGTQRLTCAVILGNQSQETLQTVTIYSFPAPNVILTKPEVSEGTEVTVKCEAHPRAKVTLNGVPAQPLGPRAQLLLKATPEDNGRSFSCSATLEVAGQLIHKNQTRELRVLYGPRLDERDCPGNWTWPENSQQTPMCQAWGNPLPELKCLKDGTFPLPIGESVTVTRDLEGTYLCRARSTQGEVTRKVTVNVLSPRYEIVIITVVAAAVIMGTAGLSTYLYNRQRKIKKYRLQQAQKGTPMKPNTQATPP
T1 sequence (P05107 whole entry): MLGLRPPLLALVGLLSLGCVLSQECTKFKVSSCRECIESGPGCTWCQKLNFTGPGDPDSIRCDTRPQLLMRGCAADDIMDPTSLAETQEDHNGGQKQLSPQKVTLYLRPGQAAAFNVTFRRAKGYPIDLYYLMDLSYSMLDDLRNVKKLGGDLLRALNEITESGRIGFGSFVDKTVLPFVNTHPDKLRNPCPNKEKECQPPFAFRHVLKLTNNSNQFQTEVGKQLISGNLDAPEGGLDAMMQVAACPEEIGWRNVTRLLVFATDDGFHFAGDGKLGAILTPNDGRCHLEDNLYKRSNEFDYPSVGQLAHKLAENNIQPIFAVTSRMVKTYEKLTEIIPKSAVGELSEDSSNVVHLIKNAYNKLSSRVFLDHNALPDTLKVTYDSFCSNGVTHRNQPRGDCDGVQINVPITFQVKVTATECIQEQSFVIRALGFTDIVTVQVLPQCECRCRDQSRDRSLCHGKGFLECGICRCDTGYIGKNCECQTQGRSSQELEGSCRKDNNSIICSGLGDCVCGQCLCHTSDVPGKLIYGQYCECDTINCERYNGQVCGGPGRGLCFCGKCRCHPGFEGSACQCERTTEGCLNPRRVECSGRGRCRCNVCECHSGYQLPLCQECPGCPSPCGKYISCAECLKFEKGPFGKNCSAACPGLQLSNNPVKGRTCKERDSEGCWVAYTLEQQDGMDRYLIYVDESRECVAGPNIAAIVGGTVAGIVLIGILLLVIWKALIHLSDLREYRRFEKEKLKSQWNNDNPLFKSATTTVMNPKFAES

[2] = target: T1, Intercellular adhesion molecule (ICAM-1), Integrin alpha-L/beta-2; assay: Inhibition against binding of LFA-1 to ICAM-1; format: protein-complex assay

Row | Structure (SMILES) | IC50 [1] [µM] | IC50 [2] [µM]
1 | O=C(/C=C/c1ccccc1Sc1ccc(Cl)cc1Cl)NCCCn1ccnc1 | 0.96 | –
2 | O=C(O)/C=C/c1ccccc1Sc1ccc(Cl)cc1Cl | 2.6 | –
3 | O=C(/C=C/c1ccc(Sc2ccc(Cl)cc2Cl)c(Cl)c1)NCCCCCCO | 0.59 | –
4 | O=C(/C=C/c1ccccc1Sc1ccc(Cl)cc1Cl)NCC(O)CO (centres undefined) | 3.8 | –
5 | CC(=O)N1CCN(C(=O)/C=C/c2ccc(Sc3cccc(Cl)c3Cl)c([N+](=O)[O-])c2)CC1 | 0.1 | –
6 | O=C(/C=C/c1ccc(Sc2ccc(Cl)cc2Cl)c(Br)c1)NCCCN1CCCC1=O | 0.65 | –
7 | Nc1ccc(Sc2ccc(Cl)cc2Cl)c(Cl)c1 | – | 1.7
8 | CC(=O)N1CCN(C(=O)/C=C/c2ccc(Sc3ccc(Cl)cc3Cl)c(Cl)c2)CC1 | 0.14 | –
9 | Nc1cc(/C=C/C(=O)NCCCN2CCCC2=O)ccc1Sc1ccc(Cl)cc1Cl | 19 | –
10 | CC(=O)N1CCN(C(=O)/C=C/c2ccc(Sc3ccccc3C(N)=O)c([N+](=O)[O-])c2)CC1 | 16.2 | –
11 | O=C(/C=C/c1cccc(Sc2ccc(Cl)cc2Cl)c1)N1CCOCC1 | 16.5 | –
12 | CC(=O)N1CCN(C(=O)/C=C/c2ccc(Sc3ccccc3N(C)C)c([N+](=O)[O-])c2)CC1 | 0.31 | –
13 | CN(CCC(=O)Nc1ccccc1Sc1ccc(Cl)cc1Cl)Cc1ccccc1 | > 100 | –
14 | CN(C)CCC(=O)Nc1ccccc1Sc1ccc(Cl)cc1Cl | 82 | –
15 | O=C(/C=C/c1ccc(Sc2ccc(Cl)cc2Cl)c(Cl)c1)NCCO | 0.92 | –
16 | O=C(/C=C/c1ccccc1Sc1ccc(Cl)cc1Cl)NCC1CCCO1 (centres undefined) | 2.1 | –
17 | O=C(/C=C/c1ccc(Sc2ccccc2CN2CCN(Cc3ccc4c(c3)OCO4)CC2)c(Cl)c1)N1CCOCC1 | 0.1 | –
18 | O=C(/C=C/c1cccc(Sc2ccc(Cl)cc2Cl)c1)NCCCn1ccnc1 | 7 | –
19 | CC(=O)N1CCN(C(=O)/C=C/c2ccc(Sc3ccccc3Cl)c([N+](=O)[O-])c2)CC1 | 0.11 | –
20 | CC(=O)N1CCN(C(=O)/C=C/c2ccc(Sc3ccccc3C(C)(C)C)c([N+](=O)[O-])c2)CC1 | 0.53 | –
21 | CCCN(CCC)CCC(=O)Nc1ccccc1Sc1ccc(Cl)cc1Cl | 61 | –
22 | O=C(/C=C/c1ccccc1Sc1ccc(Cl)cc1Cl)NCCCCCCO | 100 | –

Row | Structure (SMILES) | IC50 [1] [µM] | IC50 [2] [µM]
23 | O=C(/C=C/c1ccc(Sc2ccc(Cl)cc2Cl)c(Cl)c1)NCCCN1CCCC1=O | 0.55 | –
24 | O=C(/C=C/c1ccccc1Sc1ccc(Cl)cc1Cl)NCCc1ccccc1 | > 100 | –
25 | CN(C)CCNCc1ccccc1Sc1ccc(Cl)cc1Cl | 5.6 | –
26 | O=C(/C=C/c1ccc(Sc2ccccc2/C=C/C(=O)N2CCOCC2)c(Cl)c1)N1CCOCC1 | 0.18 | –
27 | O=C(O)CNC(=O)/C=C/c1ccccc1Sc1ccc(Cl)cc1Cl | 3.9 | –
28 | O=CN1CCN(Cc2ccccc2Sc2ccc(/C=C/C(=O)N3CCOCC3)cc2Cl)CC1 | 0.42 | –
29 | O=C(/C=C/c1ccc(Sc2ccc(Cl)cc2Cl)c(Cl)c1)N(CCO)CCO | 0.71 | –
30 | Cc1cccc2sc(NC(=O)/C=C/c3ccccc3Sc3ccc(Cl)cc3Cl)nc12 | > 100 | –
31 | NC(=O)c1cc(/C=C/C(=O)N2CCOCC2)ccc1Sc1ccc(Cl)cc1Cl | > 20 | –
32 | O=C(/C=C/c1ccccc1Sc1ccc(Cl)cc1Cl)NCCCN1CCCC1=O | 1.6 | –
33 | CCOC(=O)CN(C)Cc1ccccc1Sc1ccc(/C=C/C(=O)N2CCOCC2)cc1Cl | 0.26 | –
34 | CN1CCN(C(=O)/C=C/c2ccc(Sc3ccc(Cl)cc3Cl)c(Cl)c2)CC1 | 1.1 | –
35 | O=C(/C=C/c1ccc(Sc2ccc(Cl)cc2Cl)c(Cl)c1)N1CCOCC1 | 0.46 | –
36 | O=C(/C=C/c1ccccc1Sc1ccc(Cl)cc1Cl)N(Cc1ccccc1)Cc1ccc(Oc2ccccc2)cc1 | > 100 | –
37 | CC(=O)N1CCN(C(=O)/C=C/c2ccc(Sc3ccccc3C)c([N+](=O)[O-])c2)CC1 | 0.12 | –
38 | O=C(CCN1CCCC1)Nc1ccccc1Sc1ccc(Cl)cc1Cl | > 10 | –
39 | O=C(/C=C/c1ccc(Sc2ccccc2NCCCN2CCOCC2)c(Cl)c1)N1CCOCC1 | 0.18 | –
40 | CC(=O)N1CCN(C(=O)/C=C/c2ccc(Sc3ccc(Cl)cc3Cl)c([N+](=O)[O-])c2)CC1 | 0.09 | –
41 | CC(=O)N1CCN(C(=O)/C=C/c2ccc(Sc3ccccc3N)c([N+](=O)[O-])c2)CC1 | 0.62 | –
42 | O=C(/C=C/c1cccc(Sc2ccc(Cl)cc2Cl)c1)NCCCCCCO | 9.8 | –
43 | O=C(/C=C/c1ccc(Sc2ccc(Cl)cc2Cl)c(/C=C/C(=O)N2CCOCC2)c1)N1CCOCC1 | > 20 | –
44 | O=C(/C=C/c1ccccc1Sc1ccc(Cl)cc1Cl)N1CCOCC1 | 1.2 | –

Row | Structure (SMILES) | IC50 [1] [µM] | IC50 [2] [µM]
45 | CCc1ccccc1Sc1ccc(/C=C/C(=O)N2CCN(C(C)=O)CC2)cc1[N+](=O)[O-] | 0.065 | –
46 | O=C(/C=C/c1ccc(Sc2ccc(Cl)cc2Cl)c(NCCCN2CCOCC2)c1)NCCCN1CCCC1=O | 15.5 | –
47 | O=C(/C=C/c1ccc(Sc2ccc(Cl)cc2Cl)c([N+](=O)[O-])c1)NCCCN1CCCC1=O | 0.17 | –
48 | CC(=O)N1CCN(C(=O)/C=C/c2ccc(Sc3ccc(Cl)cc3Cl)c(/C=C/C(=O)N3CCOCC3)c2)CC1 | 18 | –
49 | O=C(/C=C/c1ccc(Sc2ccc(Cl)cc2Cl)c(Cl)c1)NCCCn1ccnc1 | 1.4 | –
50 | O=Cc1cc(/C=C/C(=O)N2CCOCC2)ccc1Sc1ccc(Cl)cc1Cl | 0.61 | –
51 | CC(=O)N1CCN(C(=O)/C=C/c2ccc(Sc3ccccc3C=O)c([N+](=O)[O-])c2)CC1 | 0.06 | –
52 | Clc1ccc(Sc2ccccc2NCCCN2CCOCC2)c(Cl)c1 | 0.14 | –
53 | O=C(/C=C/c1cccc(Sc2ccc(Cl)cc2Cl)c1)NCCCN1CCCC1=O | 4.5 | –
54 | O=C(/C=C/c1ccc(Sc2ccccc2CN2CCOCC2)c(Cl)c1)N1CCOCC1 | 0.15 | –
55 | O=C(O)/C=C/c1ccc(Sc2ccc(Cl)cc2Cl)c(Cl)c1 | 2.6 | –
56 | O=C(/C=C/c1ccccc1Sc1ccc(Cl)cc1Cl)NCCO | 3.3 | –
57 | CN(C)CCN1c2ccccc2Sc2ccc(Cl)cc21 [CHOLRPHENETHAZINE] | – | 28
58 | O=C(/C=C/c1ccccc1Sc1ccc(Cl)cc1Cl)N(CCO)CCO | 2.3 | –
59 | O=C(/C=C/c1ccc(Sc2ccc(Cl)cc2Cl)c(/C=C/C(=O)N2CCOCC2)c1)NCCCN1CCCC1=O | > 20 | –
60 | O=C(/C=C/c1cccc(Sc2ccc(Cl)cc2Cl)c1)N(CCO)CCO | 15 | –
61 | CN1CCN(CCC(=O)Nc2ccccc2Sc2ccc(Cl)cc2Cl)CC1 | 33 | –
62 | O=C(/C=C/c1ccc(Sc2ccc(Cl)cc2Cl)c(Cl)c1)N1CCN(c2ccccn2)CC1 | 0.75 | –
63 | O=C(O)c1cc(/C=C/C(=O)N2CCOCC2)ccc1Sc1ccc(Cl)cc1Cl | > 20 | –
64 | O=C(CCN1CCOCC1)Nc1ccccc1Sc1ccc(Cl)cc1Cl | 12 | –
